Laboratory results as given in patent US20240279202A1 (NURIX THERAPEUTICS, INC., priority 2021, published 2024).

biological target: T1, ITK (Homo sapiens, UniProt Q08881); assay: ITK degradation MSD (Meso Scale Discovery) assay; assay type: cell-based; design: either human Jurkat (Clone E6-1 ATCC TIB-152) or Motl4 (ATCC CRL-1552), were plated; endogenous in cells; host or cells: Jurkat clone E6-1 (ATCC TIB-152) or Molt4 (ATCC CRL-1552); conditions: Jurkat or Molt4 cells, 4 or 6 hrs
T1 sequence (Q08881 1-620): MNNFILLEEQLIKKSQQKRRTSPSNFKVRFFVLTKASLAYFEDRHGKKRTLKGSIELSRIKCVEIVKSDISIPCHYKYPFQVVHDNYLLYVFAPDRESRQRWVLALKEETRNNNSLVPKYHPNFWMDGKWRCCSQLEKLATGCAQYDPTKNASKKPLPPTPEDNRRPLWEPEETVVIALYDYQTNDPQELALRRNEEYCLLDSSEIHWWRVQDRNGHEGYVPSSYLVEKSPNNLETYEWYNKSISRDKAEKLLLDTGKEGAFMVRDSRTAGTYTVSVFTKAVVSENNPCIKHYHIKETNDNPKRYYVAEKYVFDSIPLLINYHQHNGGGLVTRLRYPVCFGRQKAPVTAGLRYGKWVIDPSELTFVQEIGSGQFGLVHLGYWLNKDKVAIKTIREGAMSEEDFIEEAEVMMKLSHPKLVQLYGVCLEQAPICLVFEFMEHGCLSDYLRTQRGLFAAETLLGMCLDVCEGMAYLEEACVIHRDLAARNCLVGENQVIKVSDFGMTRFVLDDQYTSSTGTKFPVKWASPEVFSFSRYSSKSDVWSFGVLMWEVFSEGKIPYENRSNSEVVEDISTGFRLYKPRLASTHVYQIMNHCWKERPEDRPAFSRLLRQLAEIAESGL
Procedure, shortened: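 Human Jurkat or Molt4 cells in RPMI/10% FBS were treated 4 or 6 h […] with a 7-point, 5-fold dilution series (final 0.5% DMSO). Lysate ITK was quantified by MSD sandwich ECL immunoassay and expressed as % remaining versus DMSO. DC50 and Dmax came from four-parameter fits.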

Row | DC50 [nM] | Dmax [%] | SMILES
1 | 0.0041 | 81 | C[C@@H](C(=O)N(C)c1ccc2cc(-c3n[nH]c4c3CCC(C)(C)C4)[nH]c2c1)N1CCN(CC2CCN(c3ccc4c(c3)n(C)c(=O)n4C3CCC(=O)NC3=O)CC2)CC1 (stereo partly drawn) [Compound 6, (2S)—N-(2-(6,6-dimethyl-4,5,6,7-tetrahydro-1H-indazol-3-yl)-1H-indol-6-yl)-2-(4-((1-(1-(2,6-dioxopiperidin-3-yl)-3-methyl-2-oxo-2,3-dihydro-1H-benzo[d]imidazol-5-yl)piperidin-4-yl)methyl)piperazin-1-yl)-N-methylpropanamide]
2 | 1 | 86 | C[C@@H](C(=O)N(C)c1ccc2cc(-c3n[nH]c4c3CCC(C)(C)C4)[nH]c2c1)N1CCN(C(=O)C2CN(C3CCN(c4ccc5c(c4)C(=O)N(C4CCC(=O)NC4=O)C5=O)CC3)C2)CC1 (stereo partly drawn) [Compound 34, (2S)—N-(2-(6,6-dimethyl-4,5,6,7-tetrahydro-1H-indazol-3-yl)-1H-indol-6-yl)-2-(4-(1-(1-(2-(2,6-dioxopiperidin-3-yl)-1,3-dioxoisoindolin-5-yl)piperidin-4-yl)azetidine-3-carbonyl)piperazin-1-yl)-N-methylpropanamide]

Further lines, the compound ahead of its results:

Row | SMILES | DC50 [nM] | Dmax [%]
3 | CN(C(=O)CCC1CCN(c2ccc3c(c2)C(=O)N(C2CCC(=O)NC2=O)C3=O)C1)c1ccc2cc(-c3n[nH]c4c3CCC(C)(C)C4)[nH]c2c1 (centres unmarked) [Compound 1, N-(2-(6,6-dimethyl-4,5,6,7-tetrahydro-1H-indazol-3-yl)-1H-indol-6-yl)-3-(1-(2-(2,6-dioxopiperidin-3-yl)-1,3-dioxoisoindolin-5-yl)pyrrolidin-3-yl)-N-methylpropanamide] | 7 | 87
4 | CN(C(=O)CCN1CCN(c2ccc3c(c2)C(=O)N(C2CCC(=O)NC2=O)C3=O)CC1)c1ccc2cc(-c3n[nH]c4c3CCC(C)(C)C4)[nH]c2c1 (centres unmarked) [Compound 2, N-(2-(6,6-dimethyl-4,5,6,7-tetrahydro-1H-indazol-3-yl)-1H-indol-6-yl)-3-(4-(2-(2,6-dioxopiperidin-3-yl)-1,3-dioxoisoindolin-5-yl)piperazin-1-yl)-N-methylpropanamide] | 1.1 | 84
5 | C[C@@H](C(=O)N(C)c1ccc2cc(-c3n[nH]c4c3CCC(C)(C)C4)[nH]c2c1)N1CCN(CC2CCN(c3ccc(C(=O)NC4CCC(=O)NC4=O)nc3)CC2)CC1 (stereo partly drawn) [Compound 7, 5-(4-((4-((S)-1-((2-(6,6-dimethyl-4,5,6,7-tetrahydro-1H-indazol-3-yl)-1H-indol-6-yl)(methyl)amino)-1-oxopropan-2-yl)piperazin-1-yl)methyl)piperidin-1-yl)-N-(2,6-dioxopiperidin-3-yl)picolinamide] | 10 | 83
6 | C[C@@H](C(=O)N(C)c1ccc2cc(-c3n[nH]c4c3CCC(C)(C)C4)[nH]c2c1)N1CCN(C[C@H]2CCN(c3ccc4c(c3)C(=O)N(C3CCC(=O)NC3=O)C4=O)C2)CC1 (stereo partly drawn) [Compound 33, (2S)—N-(2-(6,6-dimethyl-4,5,6,7-tetrahydro-1H-indazol-3-yl)-1H-indol-6-yl)-2-(4-(((3R)-1-(2-(2,6-dioxopiperidin-3-yl)-1,3-dioxoisoindolin-5-yl)pyrrolidin-3-yl)methyl)piperazin-1-yl)-N-methylpropanamide] | 1.6 | 87
7 | CN(C(=O)C1CN(C2CCN(c3ccc4c(c3)C(=O)N(C3CCC(=O)NC3=O)C4=O)CC2)C1)c1ccc2cc(-c3n[nH]c4c3CCC(C)(C)C4)[nH]c2c1 (centres unmarked) [Compound 35, N-(2-(6,6-dimethyl-4,5,6,7-tetrahydro-1H-indazol-3-yl)-1H-indol-6-yl)-1-(1-(2-(2,6-dioxopiperidin-3-yl)-1,3-dioxoisoindolin-5-yl)piperidin-4-yl)-N-methylazetidine-3-carboxamide] | 8 | 83
